These results are taken from US20120064519A1, “SYSTEM AND METHOD FOR DUAL-DETECTION OF A CELLULAR RESPONSE” (priority 2007, published 2012).

The assay concerns A431 cells. Kind of assay: EW-excited fluorescence of IRDye labeled EGF interacting with A431 cells on RWG biosensor microplate. Format: cell-based, human. The procedure: 384-well Epic® cell assay microplates were obtained from Corning Inc. (Corning, N.Y.). The surface of each Epic® cell assay microplate is tissue culture compatible and enables the attachment and normal growth of adherent cells, including native cells, recombinant or engineered cell lines, primary cells, and like cells.
Cell culturing—Human epidermoid carcinoma A431 cells (American Type Cell Culture) were grown in Dulbecco's modified Eagle's medium (DMEM) supplemented with 10% fetal bovine serum (FBS), 4.5 g/liter glucose, 2 mM glutamine, and antibiotics. About 1.5 to about 2×10^4 cells at passage 3 to 15 suspended in 200 microliters of the DMEM medium containing 10% FBS were placed in each well of a 384-well microplate. After cell seeding, the cells were cultured at 37° C. under air/5% CO2 until about 95% confluency was reached (about 1-2 days). The confluent cells were washed with serum-free medium and incubated in the same medium at 37° C. under air/5% CO2 for 20 hours. On the day of assay, the cells were washed with HBSS (Hanks Balanced Salt Solution with 20 mM HEPES) buffer. The resulting A431 cells were assayed without or with pretreatment with modulators including, for example, AG1478, dynamin inhibitory peptide (DIPC), or unlabeled EGF. The EGFR was activated with the IRDye® labeled EGF and the resultant DMR signals were then recorded.
Optical system—An optical detection system is constructed and used for dual-detection of both EW-based labeled-free signal and EW-excited fluorescence of IR dye molecules as shown in FIG. 2C.
FIGS. 12A to 12D show measured fluorescence intensities of A431 cells cultured on the biosensor microplate surfaces in response to stimulation with IRDye® labeled EGF (64 nM), as a function of time.

The mark [1] stands for this setting: pretreatment 10 micromolar for 1 hr, then IRDye labeled EGF 64 nM (FIG. 12C).

In the case of `COc1cc2ncnc(Nc3cccc(Cl)c3)c2cc1OC` [AG1478], under setting [1], the “effect on decay phase in fluorescence intensity” value was “completely blocked” and the “effect on initial increase phase in fluorescence intensity” value is given as “complicated effects”. Turning to “IRDye-EGF: near-infrared (NIR) labeled recombinant human epidermal growth factor, 54 amino acid residues, conjugated with the IRDye fluorophore; LI-COR Biosciences”, the “fluorescence intensity as a function of time” value (IRDye labeled EGF 64 nM, A431 cells without any pretreatment (FIG. 12A)) is “an initial increase in fluorescence; and thereafter by a slow decrease in fluorescence”. With “unlabeled EGF: epidermal growth factor; causes receptor internalization and desensitization; obtained from Sigma”, the “effect on both the increase and decrease phase in fluorescence intensity” value (pretreatment 32 nM for 1 hr, then IRDye labeled EGF 64 nM (FIG. 12D)) is listed as “almost completely blocked”.
